We go through five molecules from ChEMBL document CHEMBL4428124, “Advances in rationally designed dual inhibitors of HIV-1 reverse transcriptase and integrase” (Bioorg Med Chem, 2016).

For test [1], the target named is Human immunodeficiency virus type 1 reverse transcriptase (Human immunodeficiency virus 1, UniProt Q72547). The experiment in a line: Inhibition of recombinant HIV1 RT.
Test [2] relates to Human immunodeficiency virus 1. The experiment in a line: Antiviral activity against HIV1. The class given is functional, organism-based.

Take `O=c1[nH]c(SCc2ccccc2)nc(C(O)c2ccccc2)c1O` (centres undefined): in test [1], the IC50 was above 200 µM. The molecule also displayed an EC50 in test [2] of 36.5 µM. For the molecule `O=C(c1ccc(Br)cc1)c1nc(SCc2ccccc2)[nH]c(=O)c1O`, the half-inhibitory concentration (IC50) in test [1] is above 200 µM. The EC50 in test [2] is 175 µM. For the molecule `O=C(c1ccccc1)c1nc(SCc2ccccc2)[nH]c(=O)c1O`, the IC50 in test [1] was determined as 95.1 µM. Also, the EC50 in test [2] was found to be 36 µM. As for `O=C(c1ccc(Cl)cc1)c1nc(SCc2ccccc2)[nH]c(=O)c1O`, the IC50 in test [1] was 113 µM. The molecule further showed a concentration for a half-maximal effect (EC50) in test [2] of 164 µM.

Turning to `CC(C)Nc1cccnc1N1CCN(C(=O)c2cc3cc(NS(C)(=O)=O)ccc3[nH]2)CC1` [DELAVIRDINE], the EC50 in test [2] turned out to be 0.021 µM.

For orientation: IC50 means the concentration that gives 50% inhibition. By EC50 is commonly meant the concentration giving half of the maximal effect. Low values mean higher potency in that assay, high ones lower potency in that assay.
